Entries after “also recorded” stand apart in the source; their conditions may differ.
Tested on: acute asthma mice
Experiment: Acute asthma model (ovalbumin sensitization, intranasal challenge)
Format: in vivo, Balb/c mice
Procedure: (Chronic asthma model) Seven week old female Balb/c mice were injected intraperitoneally (IP) with 20 μg of chicken ovalbumin (OVA) absorbed with 1 mg aluminum hydroxide, an adjuvant known to promote the development of a Th2 response by the immune system, on day 0 (denoted by first day injection) and day 7. Full body inhaled exposure to OVA was initiated at day 21. Briefly, these treatments utilized an InExpose full body aerosol chamber (Scireq, Montreal, Canada) where a 1% OVA solution, suspended in PBS, pH 7.45, was nebulized at 0.2 mL/min with a filtered room air flow rate of 2400 mL/min for a total period of 30 minutes, 3 times a week for either 42 (FIG. 13A) or 62 days (FIG. 13B). (Acute asthma model) Seven week old female Balb/c mice were injected intraperitoneally with 50 μg of chicken OVA absorbed with 1 mg aluminum hydroxide on day 0 (denoted by first day injection) and day 7. Aqueous OVA ([…] in PBS) was delivered intranasally daily from day 20 to day 24 (FIG. 2), Vasculotide or saline vehicle (control, PBS) was delivered to the mice via IP injections.
Blood was collected from the left ventricle of anaesthetized mice into heparinized 1 cc syringes. Following collection, blood was placed into Li-heparin microtubes. Subsequently, the tubes were centrifuged at 3000 RPM for 15 minutes at 4° C. Plasma was collected from the top of the samples and frozen at −80° C. for later analysis. The remaining buffy coat and red blood cells were lysed then fixed in 1× lyse/fix buffer (BD Biosciences, Mississauga, Canada) according to manufacturer's instructions.
Twenty-four hours after last aerosol exposure and immediately following exsanguinations, tissue was dissected from neck to expose trachea. A small lateral incision was made in the trachea to allow passage of 23 gauge lavage catheter into trachea. The catheter, attached to a 3 cc syringe containing warmed Hanks buffer, was carefully passed into the lumen of the trachea. A suture was secured around the trachea with a knot to secure the catheter in place. Buffer (1 cc) was injected slowly into the lungs and fully aspirated three times. The volume of recovered buffer was recorded for each animal to facilitate calculation of BAL infiltrate.
Analysis of plasma samples generated for the asthma study was the same as that outlined for the atopic dermatitis study with one small modification. Plasma from mice used in the asthma study was diluted 1:4 instead of 1:8 for the atopic dermatitis samples.
(BAL analysis) Collected BAL fluid was centrifuged at 1000 RPM for 10 minutes at 4° C. BAL fluid was removed and collected for subsequent CBA analysis. The BAL cell pellet was lysed/fixed in 1× lyse/fix buffer according to manufacturer's instructions (BD Biosciences, Mississauga, Canada). The total number of cells contained in each sample was determined by flow cytometry using flow-set beads (Count Bright Beads, Invitrogen), to facilitate sample volume and cell count calculations. A total of 7000 beads were counted for each sample. Flow cytometry analysis was gated on FSC/SSC to eliminate debris and dead cells. Differential cell count analysis was also performed by FACS where surface marker antibodies were used as follows: eosinophils (SSC^hi FITCmed Ige^med), neutrophils (SSC^med FITC^hi Ige^med), monocytes (SSC^med CD11b^+ CD115^+) and lymphocytes (SSC^lo and CD4^+ or CD8^+). In addition to monocyte markers (SSC^med CD11b^+ CD115^+), these cell populations were further characterized using antibodies specific for Tie2, TLR4, and Ly6C. Ly6C^low and Ly6C^high further define monocytes as classical, resident monocytes or inflammatory monocytes, respectively. Identified neutrophils were further labelled with antibodies to Tie2 and TLR4. All cell suspensions were incubated with purified anti-CD16/CD32 mAb (BD Biosciences, Mississauga, ON, Canada) to block non-specific background caused by Fc receptors, followed by incubation with the specific antibodies. […]

Vasculotide: Modified T7 peptide (CHHHRHSF, SEQ ID NO:2) conjugated to 10 kDa tetrameric polyethylene glycol-maleimide; Tie2 binding peptide mimetic
classical monocytes (Ly6C−) in BAL (acute asthma, d24): increased | number of peripheral blood mononuclear cells (acute asthma, d24): prevented a significant increase | plasma IL-4 (cytometric bead array) (acute asthma, d24): decreased | plasma IL-5 (cytometric bead array) (acute asthma, d24): decreased | plasma IL-13 (cytometric bead array) (acute asthma, d24): decreased | plasma MCP-1 (cytometric bead array) (acute asthma, d24): decreased | plasma MIP1α (cytometric bead array) (acute asthma, d24): decreased | plasma MIP1β (cytometric bead array) (acute asthma, d24): decreased | plasma RANTES (cytometric bead array) (acute asthma, d24): decreased | plasma TNF (cytometric bead array) (acute asthma, d24): decreased | inflammatory monocytes (Ly6C+) in BAL (acute asthma, d24, vs PBS asthmatic controls): significantly fewer; also recorded: decreased | BAL eosinophil absolute counts (acute asthma, day 24): reduced; also recorded: statistical reduction | BAL number of lymphocytes (acute asthma, day 24): did not affect; also recorded: non-statistical trend towards decreased | BAL number of monocytes (acute asthma, day 24): did not affect | BAL number of neutrophils (acute asthma, day 24): did not affect; also recorded: non-statistical trend towards decreased | reduction of total absolute BAL counts (acute asthma, systemic (IP) treatment, flow cytometry): 25% | BAL cell numbers in the absence of asthma (non-asthmatic mice): no effect
